Fc1cccc(CC2(Cc3cccc(F)n3)c3cccnc3-c3ncccc32)n1 gave a melting point of 221 to 225 °C.
For COC(=O)c1cc(Cl)c(NC(C)=O)c([N+](=O)[O-])c1O, the melting point was 166 to 169 °C.
Work on O=C(Nc1ccc2[nH]ccc2c1)c1cc2cc(F)ccc2n1Cc1cccc(F)c1 yielded a melting point of 158 to 163 °C.
CCOC(=O)C1(F)C(=O)NC(=O)NC1N1CCCCC1 (centres undefined) gave a melting point of 149 to 150 °C.
BrC1Cn2cccc2Sc2ccccc21 (centres undefined) gave a melting point of 115 to 116 °C.
Molecule Cc1cc(-c2ncn3c(C(F)(F)F)cc(-c4ccc(F)c(Cl)c4)nc23)ccn1 has a melting point of 255 °C.
With COc1nc(C(F)(F)F)cc(=O)n1-c1cc(OC(C)=O)c(Cl)cc1F the melting point was 110 to 112 °C.
Cc1cc(CCCCCOc2ccc(C#N)cc2)on1 showed a melting point of 57 °C.
For Nc1ccc(I)cc1C(=O)c1ccccc1Cl, the melting point was 120 to 122 °C.
In the case of O=C(Cl)N1CCOCC1, the melting point is reported as 138 to 139 °C.
Molecule CCOC(=O)C(Cc1ccc(OC)cc1)(C(=O)OCC)c1cc2cc(Br)ccc2s1 has a melting point of 58 to 60 °C.
COc1ccc(C(O)CN2CCNC2=S)cc1 (centres undefined) gave a melting point of 110 °C.
Molecule Cc1nc2c(OCc3c(Cl)cc(C(O)c4ccccc4)cc3Cl)cccn2c1Br (centres undefined) has a melting point of 178 to 179 °C.
COc1ccc(-c2cc3ncc(C#N)c(Nc4ccc(Sc5nccn5C)c(Cl)c4)c3cc2OC)cc1 gave a melting point of 227 to 229 °C.
CSC[C@H]1C[C@H](C(=O)O)CS1 (relative stereo) gave a melting point of 74.8 to 76 °C.
With O=C(CCCCc1ccccc1)NC(C(=O)Nc1n[nH]c(=S)s1)c1ccccc1 (centres undefined) the melting point was 210 to 211 °C.
Work on CC1C(=O)N(c2ccc(O)cc2)C(=S)N1c1ccc(Oc2ccccc2)cc1 (centres undefined) yielded a melting point of 202 to 204 °C.
For CN1CC[C@@H]2CC(=O)c3c(F)cc(F)cc3[C@@H]2C1 (relative stereo), the melting point was greater than 220 °C.
In the case of CC(=O)c1cccc(OC2SCC(O)C(O)C2O)c1 (centres undefined), the melting point is reported as 166 to 174 °C.
Molecule COC1C=Cc2ccccc2C1(Nc1ccccc1C)C(N)=S (centres undefined) has a melting point of 162 °C.
With CC(C)OC(=O)C(C(=O)O)c1ccccc1 (centres undefined) the melting point was 64 to 66 °C.
Work on CCNC(=S)Nc1ccc2ncc(Nc3cc(OC)c(OC)c(OC)c3)cc2n1 yielded a melting point of 237 to 238 °C.
Work on O=[N+]([O-])C=Cc1ccc(O)c(Br)c1 yielded a melting point of 132 to 134 °C.
For CC(C(N)=O)c1ccc2c(c1)C(=O)Cc1ccc(F)cc1S2 (centres undefined), the melting point was 176 to 178 °C.
In the case of CC1=C(c2nc(C)no2)C(c2cccc(Cl)c2Cl)C(c2nc(C)no2)=C(C)N1, the melting point is reported as 227 to 229 °C.
Molecule N=C(NC(=O)Nc1ccccc1[N+](=O)[O-])c1ccccc1 has a melting point of 144 to 146 °C.
O=C(O)Cc1ccc(CN2CCN(C(c3ccccc3)c3ccccc3)CC2)cc1 showed a melting point of 183 to 185 °C.
Molecule CCOC(=O)Cc1ccc(CCC(NC(=O)OC)C(=O)O)cc1 (centres undefined) has a melting point of 108 to 110 °C.
With CCN(Cc1cc(Cl)ccc1OCC1CC1)c1ccc(C(=O)NS(=O)(=O)C(F)(F)F)nn1 the melting point was 150 °C.
CCOC(=O)c1c(N=Cc2ccc(-c3cccs3)s2)sc(N=Cc2ccc(-c3cccs3)s2)c1C(=O)OCC showed a melting point of 130 to 132 °C.
With Cc1cc(SC2=C(O)CC(C3CCCC3)(C3CCCC3)OC2=O)c(C(C)(C)C)cc1OS(=O)(=O)c1cn(C)cn1 the melting point was 143 to 145 °C.
With COCCCc1cc(N(C)Cc2sc(-c3ccc(C(F)(F)F)cc3)nc2C)ccc1OCC(=O)O the melting point was 142 to 143 °C.
O=C(c1ccccn1)c1cc(Br)ccc1-n1cnnc1CCl showed a melting point of 147 to 149 °C.
CCOC(=O)C1CCCN2CCC3c4cc(Cl)ccc4N(N)C3C12 (centres undefined) gave a melting point of 172 to 175 °C.
COc1ccc(C(Sc2c(N)ccc3ccccc23)C(O)C(=O)O)cc1 (centres undefined) showed a melting point of 143 to 145 °C.
Molecule Cc1nc(NC(=O)c2cc(Cl)cc(Cl)c2)sc1C(=O)NCc1ccccc1 has a melting point of 104 to 105 °C.
O=C1N(CC2COCCO2)c2ccccc2C12COc1cc3c(cc12)OCC3 (centres undefined) showed a melting point of 162 to 164 °C.
Work on COc1cccc(C(=O)C=Cc2cccc(O)c2)c1 yielded a melting point of 74 to 77 °C.
Molecule CCOC(=O)Cc1c(-c2cccnc2)c2cc(CN3CCN(c4ccccc4)CC3)c(Cl)cc2oc1=O has a melting point of 153 to 157 °C.
Molecule Cc1noc(CC(=O)Oc2ccc(Br)cc2)n1 has a melting point of 73 to 74 °C.
For COc1cccc(CC(=O)O)c1OCCCc1cn(-c2nnc(C(F)(F)F)s2)nc1C(C)C, the melting point was 114 to 115 °C.
For NS(=O)(=O)NCCc1ccccc1, the melting point was 61.8 to 62 °C.
Molecule COC(=O)c1sc2c(c1N)-c1ccccc1CN2c1ccccc1 has a melting point of 136 to 142 °C.
Molecule O=C(NO)c1ccc2c(c1)CN(C(=O)c1ccc3[nH]ccc3c1)CC2 has a melting point of 252 °C.
In the case of CNC(=O)[C@@H](NC(=O)[C@@H](CC(C)C)C(C(=O)O)C(=O)O)C(C)(C)C, the melting point is reported as 101 °C.
Molecule NP(N)(=O)Oc1ccc2cccc(NS(=O)(=O)c3ccc([N+](=O)[O-])cc3)c2c1 has a melting point of 234 to 235 °C.
With CCN1CCCC1CNC(=O)c1c(O)c(Cl)cc(Cl)c1OC (single isomer, unassigned; (-)) the melting point was 48 to 49 °C.
Work on Cc1cc(O)ccc1-c1c(C=O)sc(-c2ccc(O)cc2)c1C yielded a melting point of 244 to 247 °C.
NCC(=O)NCc1cccnc1 gave a melting point of 87 to 88 °C.
With CCCCCCC(=O)COS(=O)(=O)c1ccc(OCC)cc1 the melting point was 38 to 39 °C.
With Cc1ccc(-n2nc(C(N)=O)nc2-c2ccccc2)cc1C the melting point was 169 to 170 °C.
Molecule CCOc1ccc(CC(=O)O)cc1OCCCc1cn(-c2ccc(C(F)(F)F)cn2)nc1C1CCCCC1 has a melting point of 134 to 135 °C.
In the case of COc1cccc(-c2cn3c(n2)CCc2ccccc2-3)c1, the melting point is reported as 107 to 109 °C.
For O=[N+]([O-])c1cc(I)ccc1Nc1cccc(-n2cccn2)c1, the melting point was 165 to 166 °C.
In the case of CCNC(=O)OCc1cnc(C)c(OC(=O)NCC)c1, the melting point is reported as 121 to 122 °C.
In the case of Cc1cc(C(C)(C)CCl)c(Cl)nn1, the melting point is reported as 41 to 42 °C.
In the case of CC(C)c1nn(-c2ccc(C(F)(F)F)cn2)cc1CCCOc1c(C#N)cccc1CC(=O)O, the melting point is reported as 144 to 145 °C.
For CC1(C)CCC(C)(C)c2cc(-c3cc(-c4ccc(C(=O)O)cc4)ccc3OCCCCNC3CC3)ccc21, the melting point was 160 °C.
In the case of COc1c(C)c2c(c(O)c1CC1=C(C)C(CC(=O)O)CC1)C(=O)OC2 (centres undefined), the melting point is reported as 153 to 159 °C.
Work on CCN(CC)C(=S)SCc1ccccc1CSC(=S)N(CC)CC yielded a melting point of 78 to 80 °C.
In the case of COc1ccc(C(=O)c2[nH]c3cc(Cl)ccc3c2NC(C)=O)cc1, the melting point is reported as 137 to 139 °C.
In the case of CC(C)(C)NC(=O)[C@@H]1CCCN1C(=O)[C@@H](O)[C@H](Cc1ccccc1)NC(=O)[C@H](CC(N)=O)NC(=O)COC1CCN(C(=O)OCc2ccccc2)CC1, the melting point is reported as 98 to 104 °C.
In the case of Oc1ccc(Nc2nccc(-c3ccncc3)n2)cc1, the melting point is reported as 268 to 270 °C.
With CCOC(=O)C(=O)Nc1cc(C(F)(F)F)c(Cl)cc1[N+](=O)[O-] the melting point was 96.5 to 97.5 °C.
For CC(C)(C)C(NC(=O)c1ccc(Cl)cc1)NC(=NC#N)Nc1cccnc1 (centres undefined), the melting point was 194 to 195 °C.
Cc1ccc(OCCCN2CCN(c3nc(N)nc(-c4cc(Cl)ccc4Cl)n3)CC2)cc1 showed a melting point of 148 to 150 °C.
In the case of Cc1cccc2c1nc(C(C)C)n2Cc1c(F)cccc1F, the melting point is reported as 151 to 153 °C.
CCOC(=O)CC(O)(CC)c1cc2n(c(=O)c1CO)Cc1cc3ccccc3nc1-2 (centres undefined) showed a melting point of 157 to 161 °C.
For N#Cc1cccc(C2=Nc3ccc(-c4cc(F)ccc4F)cc3NC(=O)C2)c1, the melting point was 247 °C.
In the case of O=c1c(Cl)c(-c2ccc3c(ccn3[C@H]3CC[C@H](O)CC3)c2)ccn1CC1CC1, the melting point is reported as 209 °C.
Cn1c2c(c3ccccc31)CC(C(=O)O)N(C(=O)c1ccc(Cl)cc1)C2 (centres undefined) showed a melting point of 262 to 263 °C.
Work on CCCc1c(OCCOc2cccc(C(=O)OCC)c2)ccc(C(C)=O)c1O yielded a melting point of 58 to 60 °C.
With O=C(c1cc(C(F)(F)F)cc(C(F)(F)F)c1)N1CCC2(CC1)C(=O)NCN2c1ccc(Cl)c(Cl)c1 the melting point was 220 to 222 °C.
With CC(C)c1cc(S(N)(=O)=O)c(C(C)C)cc1C(F)(F)F the melting point was 171 to 174 °C.
For O=c1c2ccc([N+](=O)[O-])cc2nc(CSc2ncnc3[nH]cnc23)n1-c1ccccc1Cl, the melting point was 218 °C.
In the case of COc1cc(/C=C/c2cc(/C=C/c3ccc4cc[nH]c4c3)n[nH]2)cc(OCc2ccccn2)c1, the melting point is reported as 88 to 93 °C.
In the case of Oc1c2c(nn1-c1ccccn1)CCc1cc(Br)ccc1-2, the melting point is reported as 164 to 165 °C.
Work on Cc1cccc2[nH]c3cc(O)ccc3c12 yielded a melting point of 191 °C.
With CC(=O)c1nc(N)nc(N)c1-c1ccc(Cl)cc1 the melting point was 206 to 208 °C.
CCn1nc(C)c2nc(C)nc(NCCO)c21 showed a melting point of 166 to 168 °C.
CC1CCC2(CC1S(=O)(=O)c1ccccc1)OCCO2 (centres undefined) showed a melting point of 105 to 106 °C.
C=CCC12CCC(c3ccccc31)c1ccccc12 showed a melting point of 42 to 43 °C.
Work on Cc1cccc(-c2[nH]c(C(C)C)nc2-c2cccc(-c3ccc(C)[nH]3)c2)n1 yielded a melting point of 128 to 130 °C.
O=C(NC1CCCn2c1nc(-c1ccncc1)cc2=O)Oc1ccccc1 (racemic) gave a melting point of 193 to 195 °C.
Molecule CCCCCCCCCCOc1ccc(OCc2ccccc2)c(C(=O)OC)c1 has a melting point of 32 to 34 °C.
CC(Cn1cc(Cl)c2ccccc21)N(O)C(N)=O (centres undefined) showed a melting point of 168 to 171 °C.
Cc1nn(C)c2c1N=CN1CC(C)N=C21 (centres undefined) gave a melting point of 115 to 117 °C.
With Cc1cccc2c1nc(-c1c(F)cccc1F)n2Cc1c(Cl)cccc1Cl the melting point was 202 to 203 °C.
With CCOC(=O)c1c(-c2ccccc2)nn2c1-c1ccccc1CC2 the melting point was 84 to 85 °C.
COc1ccc(C(=O)Nc2ccc3ccc(OC(C)C)nc3n2)cc1 gave a melting point of 78 °C.
Work on COc1ccc2ccc3nc(C(=O)Nc4nnn[nH]4)cn3c2c1 yielded a melting point of 298 to 301 °C.
NC(=CC(=O)c1ccccn1)C1CC1 showed a melting point of 145 to 150 °C.
For CC(CC(=O)O)C(=O)c1ccc(N2CCOCC2)c([N+](=O)[O-])c1 (centres undefined), the melting point was 127 to 129 °C.
Cn1cc(Cl)cnc1=O showed a melting point of 210 °C.
Clc1ncnc2c1N(C1CC=CC1)CN2 gave a melting point of 124 to 126 °C.
In the case of CC(C)(CC(=O)C(=O)Nc1ccc2c(c1)COC2=O)c1cccc(I)c1, the melting point is reported as 160 to 161 °C.
Molecule Cc1nc2nccc(C(C)Oc3ccc(Cl)cc3)n2n1 (centres undefined) has a melting point of 138 °C.
Molecule Cc1oc(-c2ccccc2)nc1COc1ccc(Sc2nc(CC(=O)O)cs2)cc1 has a melting point of 180 to 181 °C.
COc1ccc(S(=O)(=O)N2c3ccc(Br)cc3-c3ccccc3C2C(C)(C)C)cc1 (centres undefined) gave a melting point of 195 to 198 °C.
